Assays:
[1] = GSH Reaction Rates (inherent GSH reactivity); format: in vitro ADME; details: for T½(hour) in GSH: pH 7.4, up to 6 h
Source text: Glutathione (GSH) is a tripeptide found in most of the tissues, especially in high concentrations in the liver, and plays critical roles in protecting cells from oxidative damage and the toxicity of xenobiotic electrophiles, and maintaining redox homeostasis. More specifically, glutathione conjugation helps contribute to detoxification by binding electrophiles that could otherwise bind to proteins or nucleic acids, resulting in cellular damage and genetic mutations.
Many potentially toxic electrophilic xenobiotics and some endogenous compounds are detoxified by conversion to the corresponding glutathione S-conjugate, which consumes inherent GSH and then diminishes detoxification effects. Some drugs and halogenated workplace/environmental contaminants are bioactivated by this mechanism.
Therefore Strategy to minimize the GSH metabolism is very critical. Short T1/2 in inherent GSH reaction indicated high GSH reaction rate. Thus T1/2 in inherent GSH reaction assay was determined for the screening of candidates.
Reference compounds and compounds of this invention potentially could form conjugation with GSH either through halogenated moieties substitution reaction or direct Michael addition reaction. This test was therefore performed to check GSH reactivity of listed compounds.
For inherent GSH reactivity determination, compounds at 1 μM were incubated at 37° C. with and without 5 mM GSH for 0, 0.5, 1, 2, 4 and 6 h in 100 mM potassium phosphate buffer at pH 7.4. At the end of the designated time points, samples were quenched with acetonitrile containing 10 mM N-ethylmaleimide and an internal standard. Quenched samples were centrifuged, and supernatants were analyzed by LC-MS/MS for compound quantification.

[2] = molecular target: KRAS G12D binding to BRAF (Homo sapiens, UniProt P01116+P62937, G12D); assay: KRAS-BRAF with CYPA (500 nM) interaction assay (TR-FRET), G12D; format: biochemical; details: 3 hours
KRAS G12D binding to BRAF, sequence (P01116 1-188 isoform P01116-2 G12D): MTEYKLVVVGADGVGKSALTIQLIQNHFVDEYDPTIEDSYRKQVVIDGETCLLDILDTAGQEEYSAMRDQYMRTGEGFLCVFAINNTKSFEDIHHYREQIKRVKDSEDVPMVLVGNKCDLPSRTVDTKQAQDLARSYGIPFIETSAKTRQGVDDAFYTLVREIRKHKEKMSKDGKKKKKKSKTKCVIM
KRAS G12D binding to BRAF, sequence (P62937 whole entry): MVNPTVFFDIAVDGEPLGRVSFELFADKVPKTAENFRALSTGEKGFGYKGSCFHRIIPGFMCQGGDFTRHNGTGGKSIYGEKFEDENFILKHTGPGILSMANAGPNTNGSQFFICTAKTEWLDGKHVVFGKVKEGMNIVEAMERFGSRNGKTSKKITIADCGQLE
Procedure, shortened: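 TR-FRET (Ex320 nm, Em 665/615 nm) measured compound- or compound-CYPA-dependent disruption of KRAS-BRAF complex, with CYPA at 500 nM. Disruption scored as decrease in TR-FRET ratio versus DMSO control wells.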

KRAS G12C-BRAF complex = molecular target: T1, KRAS G12C-BRAF complex (Homo sapiens, UniProt P01116+P62937, G12C); assay: KRAS G12C-BRAF NanoBit assay in HEK293 cells; format: cell-based; details: HEK293 stable cell pool, 3 hours of incubation
T1 construct: expressed in transfected cells
T1 sequence (P01116 1-188 isoform P01116-2 G12C): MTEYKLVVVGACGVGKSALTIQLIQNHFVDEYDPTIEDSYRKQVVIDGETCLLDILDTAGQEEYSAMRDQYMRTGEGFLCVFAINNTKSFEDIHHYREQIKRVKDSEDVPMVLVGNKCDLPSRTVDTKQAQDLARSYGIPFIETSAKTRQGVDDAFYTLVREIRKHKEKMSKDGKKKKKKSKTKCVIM
T1 sequence (P62937 whole entry): as the sequence (P62937 whole entry) above
Procedure, shortened: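 HEK293 stable pool co-expressing SmBiT-KRAS G12C and BRAF RBD-LgBiT, exposed 3 h to compounds (16-point 3-fold dilution, top final 30 μM). Luminescence was read 20 min after Nano-Glo Live Cell substrate addition. A decrease versus DMSO control indicates disruption of the complex.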

[3] = system: Miapaca-2 mutant cells KRAS G12C + T58I; assay: Stable KRAS mutant cell line viability assay (CTG), G12C + T58I; format: cell-based; details: Homo sapiens, MIA PaCa-2, 72 h, 3 d, CellTiter-Glo
Source text: (§1) The aim of the study was to determine the potency and efficacy of compounds for cell proliferation using CellTiter-Glo® (CTG) Luminescent Cell Viability Assay (Promega Corp., Madison, WI). We cloned […] KRAS^G12C variant sequences with secondary mutations (V8A, V9Y, S17E, T58I, A59T, S65W, R68S, D69P, M72I, D92R, H95N, Y96D, Q99F, Q99W, Y96H, and F156L) into the Miapaca-2. Totally 14 stable Miapaca-2 mutant cell lines were established through lentivirus infection. For the cell viability assay, cells were dosed with compounds in a 9-point dose-response using a 4 fold dilution series at a top dose of 10 μM. KRAS mutant cells were maintained in DMEM+10% FBS+2.5% HI Horse serum+1% PS+1 μg/mL Puromycin and seeded into 96-well plates at 800-1,500 cells per well 24 h before compound addition and then incubated with compound for 3 d before assaying viability (CellTiter-Glo, Promega). Assays were performed in biological duplicates. Nonlinear regression curves were fitted using Xfit. IC50 (absolute IC50) is the dose at which the estimated viability is 50% relative to untreated wells.

[4] = system: Miapaca-2 mutant cells KRAS G12C + Q99W; assay: Stable KRAS mutant cell line viability assay (CTG), G12C + Q99W; format: cell-based; details: Homo sapiens, MIA PaCa-2, 72 h, 3 d, CellTiter-Glo
Source text: as §1

[5] = system: Miapaca-2 mutant cells KRAS G12C + S65W; assay: Stable KRAS mutant cell line viability assay (CTG), G12C + S65W; format: cell-based; details: Homo sapiens, MIA PaCa-2, 72 h, 3 d, CellTiter-Glo
Source text: as §1

[6] = system: Miapaca-2 mutant cells KRAS G12C + F156L; assay: Stable KRAS mutant cell line viability assay (CTG), G12C + F156L; format: cell-based; details: Homo sapiens, MIA PaCa-2, 72 h, 3 d, CellTiter-Glo
Source text: as §1

[7] = system: Miapaca-2 mutant cells KRAS G12C + D92R; assay: Stable KRAS mutant cell line viability assay (CTG), G12C + D92R; format: cell-based; details: Homo sapiens, MIA PaCa-2, 72 h, 3 d, CellTiter-Glo
Source text: as §1

[8] = Single Dose Pharmacokinetics (SDPK) study in female BALB/c mice; format: in vivo; details: mouse; for clearance: 3 mg/kg, iv; for clearance / AUC(0-t) / Cmax: female BALB/c mice, plasma
Protocol: The purpose of this study was to determine the pharmacokinetics of selected compounds following single intravenous bolus or oral gavage administration in female BALB/c mice. Briefly, two groups of female BALB/c mice (available from Zhejiang Vital River Laboratory Animal Technology Co., Ltd. or Shanghai Lingchang Biotechnology Co., Ltd) (N=3/group) were treated with a single dose of compound intravenously at 3 mg/kg (IV) or orally at 30 mg/kg (PO). Blood samples were collected at 5 min (only for IV), 15 min, 30 min, 1 h, 2 h, 4 h, 7 h and 24 h post-dose. Blood samples were placed on ice until centrifugation to obtain plasma samples. The concentration of compound in plasma samples was determined using LC-MS/MS method. The pharmacokinetic parameters were calculated by non-compartmental analysis.

[9] = 1 μM compound, 5 mM GSH, 37° C., pH 7.4, 6 hr
[10] = 1 μM compound, 5 mM GSH, 37° C.

| SMILES | Remaining at 6 hr in GSH (%) [1, 9] | T½(hour) in GSH [1, 10] | IC50 [2] | IC50 (KRAS G12C-BRAF complex) | IC50 [3] | Remaining at 6 hr in GSH (%) ([1]; 6 h, 1 μM, pH 7.4) | IC50 [4] | IC50 [5] | IC50 [6] | IC50 [7] | AUC0-last relative to A168 ([8]; 30 mg/kg, po, versus A168) | Cmax relative to A168 ([8]; 30 mg/kg, po, versus A168) | clearance [8] | AUC(0-t) ([8]; 30 mg/kg, po) | Cmax ([8]; 30 mg/kg, po) | half-life at 1 μM ([1]; pH 7.4) |
| --- | --- | --- | --- | --- | --- | --- | --- | --- | --- | --- | --- | --- | --- | --- | --- | --- |
| CO[C@@H](C)c1ncc(N2CCN(C)CC2)cc1-c1c2c3cc(c(F)cc3n1CC(F)(F)F)-c1csc(n1)C[C@H](NC(=O)[C@H](C(C)C)N(C)C(=O)[C@H]1C[C@@H](C#CC(F)(F)F)C1)C(=O)N1CCC[C@H](N1)C(=O)OCC(C)(C)C2 (atropisomer, axis not shown; (M)) [Example 3, cis-N-[(1S)-1-[[(7S,13S)-24-fluoro-(20M)-20-[2-[(1S)-1-methoxyethyl]-5-(4-methylpiperazin-1-yl)-3-pyridyl]-17,17-dimethyl-8,14-dioxo-21-(2,2,2-trifluoroethyl)-15-oxa-4-thia-9,21,27,28-tetrazapentacyclo[17.5.2.1^2,5.1^9,13.0^22,26]octacosa-1(25),2,5(28),19,22(26),23-hexaen-7-yl]carbamoyl]-2-methyl-propyl]-N-methyl-3-(3,3,3-trifluoroprop-1-ynyl)cyclobutanecarboxamide] | 100% | stable (If % depletion after 6 hour incubation is less than 20%, compounds were reported as stable) | > 10 µM | 0.036 µM | – | – | – | – | – | – | – | – | – | – | – | – |
| CCn1c(-c2cc(N3CCN(CC(F)(F)F)CC3)cnc2[C@H](C)OC)c2c3cc(c(F)cc31)-c1csc(n1)C[C@H](NC(=O)[C@H](C(C)C)N(C)C(=O)[C@H]1C[C@@H](C#CC(F)(F)F)C1)C(=O)N1CCC[C@H](N1)C(=O)OCC(C)(C)C2 (atropisomer, axis not shown; (M)) [Example 8, cis-N-[(1S)-1-[[(7S,13S)-21-ethyl-24-fluoro-(20M)-20-[2-[(1S)-1-methoxyethyl]-5-[4-(2,2,2-trifluoroethyl)piperazin-1-yl]-3-pyridyl]-17,17-dimethyl-8,14-dioxo-15-oxa-4-thia-9,21,27,28-tetrazapentacyclo[17.5.2.1^2,5.1^9,13.0^22,26]octacosa-1(25),2,5(28),19,22(26),23-hexaen-7-yl]carbamoyl]-2-methyl-propyl]-N-methyl-3-(3,3,3-trifluoroprop-1-ynyl)cyclobutanecarboxamide] | 90% | stable (If % depletion after 6 hour incubation is less than 20%, compounds were reported as stable) | > 10 µM | 0.054 µM | – | – | – | – | – | – | – | – | – | – | – | – |
| CCn1c(-c2cc(N3CCOCC3)cnc2[C@H](C)OC)c2c3cc(c(F)cc31)-c1csc(n1)C[C@H](NC(=O)[C@H](C(C)C)N(C)C(=O)[C@H]1C[C@@H](C#CC(F)(F)F)C1)C(=O)N1CCC[C@H](N1)C(=O)OCC(C)(C)C2 (atropisomer, axis not shown; (M)) [Example 11, cis-N-[(1S)-1-[[(7S,13S)-21-ethyl-24-fluoro-(20M)-20-[2-[(1S)-1-methoxyethyl]-5-morpholino-3-pyridyl]-17,17-dimethyl-8,14-dioxo-15-oxa-4-thia-9,21,27,28-tetrazapentacyclo[17.5.2.1^2,5.1^9,13.0^22,26]octacosa-1(25),2,5(28),19,22(26),23-hexaen-7-yl]carbamoyl]-2-methyl-propyl]-N-methyl-3-(3,3,3-trifluoroprop-1-ynyl)cyclobutanecarboxamide] | – | – | > 10 µM | 0.012 µM | 0.003 µM | 94% | 0.003 µM | 0.003 µM | 0.003 µM | 0.002 µM | 1.5 folds | ~2 folds | 14.2 mL/min/kg | 2180 ng·h/mL | 1510 ng/mL | – |
| CC#CC(=O)N1CC[C@H](C(=O)N(C)[C@H](C(=O)N[C@H]2Cc3nc(cs3)-c3ccc4c(c3)c(c(-c3cccnc3[C@H](C)OC)n4CC)CC(C)(C)COC(=O)[C@@H]3CCCN(N3)C2=O)C(C)C)C1 [Example A168, reference compound] | – | – | > 10 µM | 0.205 µM | – | 77% | – | – | – | – | – | – | 77 mL/min/kg | 1580 ng·h/mL | 794 ng/mL | 28.9 h |
